How the values were obtained:
Format in all cases: cell-based, human
[1] = test system: KSHV-infected DMVEC; test: Morpholino treatment and focus inhibition assay (Example 5); details: for effect on phenotype (foci, spindle shape) in focus-inhibition assay (in words): PMO-AS, KSHV-infected DMVEC, 5-10 days; for Foci/spindle morpholigical inhibition: PMO-treated KSHV-infected DMVEC vs control PMO, repeated three times
Procedure: Morpholino Treatment and Focus Inhibition Assay. Phosphorodiamidate morpholino antisense oligonucleotides (PMO-AS) were designed and synthesized by Gene Tools LLC (Philomath, Oreg.) as a Special Delivery formulation, which pairs the morpholino with a partially complementary DNA oligo. A weakly basic delivery agent, Ethoxylated Polyethlyenimine (EPEI) is then used to deliver the anionic morpholino/DNA duplex into the cytosol. PMO-AS were received as sterile, lyophilized solids ([…]) that were solubilized in sterile water to obtain 0.5 mM stock solutions. To load a 35 mm dish of DMVEC at 90% confluence, 5 microl of stock solution was mixed with 5 microl of EPEI delivery solution in 590 μl H20 for 20 minutes at room temperature, and then mixed with 1.5 ml of serum-free RPMI medium. Endothelial growth media was removed from DMVEC, and replaced with the PMO-AS:EPEI:RPMI delivery solution for 3 hours in a 37° C. incubator. After incubation, cells were rinsed, complete endothelial growth medium was added and cells were cultured for up to 10 days without sub-culture, with media replacement every 48-72 hours. This protocol allows for the characteristic post-confluent growth and development of multi-layered spindle-cell aggregates (foci) in KSHV-infected cultures. Cells were monitored daily under the phase microscope to evaluate PMO-AS-inhibition of the development of these foci. At the conclusion of an assay, cells were fixed in 2% paraformaldehyde and stained with a MAB against CD31 (Dako; 1:100) followed by a goat-anti-mouse FITC second conjugate. Junctional staining of cells with CD31 accentuated the disorganized multi-layered nature of the spindle cell aggregates as composed to the flat, organized profile of contact-inhibited cells.
For these assays, KSHV-infected DMVEC monolayers were cultured to 90% confluence and then loaded with each PMO-AS, or maintained as unloaded controls. Cultures were observed daily until control cultures had developed prominent multi-layered aggregates of spindle cells. Typically this took 5-10 days with some variation between replicate experiments. Each experiment was performed at least three times and was performed with mock-infected as well as KSHV-infected DMVEC. As expected, mock-infected DMVEC maintained a quiescent monolayer at confluence, and PMO-AS treatment of uninfected cells occurred without any adverse effect. This observation allowed verification that none of the gene knockdown treatments induced non-specific toxicity in DMVEC. The majority of tested PMO-AS had no effect on the ability of KSHV-infected DMVEC to grow post-confluence and form disorganized, multi-layered foci (TABLE 2).

[2] = test system: KSHV-infected DMVEC; test: XTT assay of PMO-AS effect on post-confluent growth (Example 5); details: 72 hours
Procedure: XTTAssay. Metabolism of XTT to a water-soluble formazan dye by viable cells gives a quantitative determination of relative cell number. The XTT assay was thus used to quantitatively assess the effect of PMO-AS treatment on KSHV focus formation and post-confluent growth. For these assays, KSHV-infected and uninfected DMVEC were seeded into 96-well flat-bottom Primaria trays at 10^4 cells/well, loaded with PMO-AS after overnight equilibration, and cultured for 72 hrs. For the final 4 hours of culture, 50 μl XTT (Roche Diagnostics, Indianapolis, Ind.) was added to each well and the optical density (OD) of each well was recorded by an ELISA reader between 450 and 500 nm. To verify efficient (>80%) PMO-AS uptake in the 96-well format, cells were treated with a FITC-tagged morpholino (FITC-PMO) and uptake visually assessed under a fluorescence microscope. This FITC-PMO also served as a control for any non-specific effect of the PMO-AS:EPEI complex on DMVEC growth. As a positive control, cells were treated with a c-Kit PMO-AS previously shown to inhibit KSHV-induced transformation (Moses, 2002). For NIH 3T3 cells, the XTT assay was performed in 96-well plates at a cell density of 10^4 cells/well, and OD measured at 48 hours.
In view of the above-described effects of Neuritin- and RDC1-specific PMO-AS in inhibiting focus formation of KSHV-infected DMVEC, a further determination was made to determine whether such inhibition correlated with reduced cellular proliferation. Such reduced cellular proliferation would be expected, because the development of multilayered cell foci requires additional cell growth that would not occur if contact inhibition was maintained. A colorimetric cellular proliferation assay was used to assess cell growth. […] This growth can be accurately assessed by monitoring the metabolism of XTT added to each well by measurement of optical density at […] (e.g., 4 hours post XTT addition). […] To verify efficient (>80%) PMO-AS uptake in the 96-well format, cells were treated with a FITC-tagged PMO-AS (FITC-PMO) and uptake visually assessed under a fluorescence microscope. […]

[3] = test system: KSHV-infected DMVEC; test: XTT proliferation assay of PMO-loaded KSHV-infected DMVEC (Example 3); details: PMO antisense silencing
Procedure: Proliferation assays, and loading of cells with PMOs. Proliferation of KSHV-infected DMVEC was quantified using an XTT (2,3-bis-(2-methoxy-4-nitro-5-sulfophenyl)-2H-tetrazolium-5-carboxanilide, disodium salt)-based assay. KSHV-infected cells were added to Primaria 96-well trays (Becton Dickinson) at 1×10^4 or 5×10^4 cells/well. XTT (Roche, Molecular Biochemicals, Indianapolis, Ind.) was added 48 hours later according to the manufacturer's instructions. Absorbance was read after 4 to 6 hours on a microplate reader.
Briefly, cells were plated in 96-well trays at a density approaching confluence (5×10^4 cells per well) in 100 μl of complete medium. PMOs were loaded the following day in a total of 100 μl (0.5 μl PMO, 0.5 μl EPEI, 49 μl H2O and 50 μl serum free medium) with reagent mixing as described by the manufacturer (GeneTools). Controls included a FITC PMO control oligonucleotide, EPEI only or H2O only. Each variable was performed in quadruplicate. Fresh complete medium was replaced 4 hours after loading. Cells were cultured for 4 days to allow for multi-layered cell growth post-confluence in the absence of any growth inhibition. XTT was added on day 4 of culture and the absorbance read 4 hrs later on a microplate reader. Cell proliferation (growth) values are given as percentage inhibition values, relative to cells without PMO, which are adjusted to 100%.

Substance | effect on phenotype (foci, spindle shape) in focus-inhibition assay (in words) [1] | Foci/spindle morpholigical inhibition [1] | effect on cell growth in XTT assay (in words) [2] | inhibition of KSHV-induced cellular proliferation (in words) [3]
RDC-1: PMO antisense to RDC-1, GAAGAGATGCAGATCCATCGTTCTG (SEQ ID NO:15) (all phosphorodiamidate morpholino (PMO); delivered paired with partially complementary DNA oligo (Special Delivery)) | dramatic effect on phenotype | Full | dramatically inhibited cell growth | substantial inhibition
KIT: FITC-labeled PMO targeting the start codon of c-Kit, CGCCTCTCATCGCGGTAGCTGCG (SEQ ID NO:21) (all phosphorodiamidate morpholino (PMO); FITC label attached, position not given here) |  | Full | dramatically inhibited cell growth | substantial inhibition
Neuritin: PMO antisense to Neuritin, TTAACTCCCATCCTACGTTTAGTCA (SEQ ID NO:19) (all phosphorodiamidate morpholino (PMO); delivered paired with partially complementary DNA oligo (Special Delivery)) | dramatic effect on phenotype | Full | dramatically inhibited cell growth | substantial inhibition
